Data on 48 compounds can be found in PubChem BioAssay AID977605 (Broad Institute, 2014).

Activity calls are given as the source filed them.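 Rule for the calls: active = fitted curve reaches 40% activation below the top valid tested dose, in every test run; inconclusive = test runs disagree on the call; inactive = the rest, including effects opposite to the expected direction.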

One experiment in a line: endothelial E-selectin upregulation by compounds – imaging, HUVEC, cherry-picked samples, dose response (AID 977605).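 Note: signal is the share of imaged cells scored positive for E-selectin.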 To be noted: HUVEC E-selectin immunostaining, at 19.5 µM (top of the series), percent of TNF-alpha response over vehicle.
On to `CC(C)C[C@@H]1COc2cc(N3CCC[C@H]3CO)ccc2S(=O)(=O)N1`, for which the activation is -0.153% (inactive).

Turning to `COc1ccc2sc(-c3ccccc3OC)c(-c3ccc(O)cc3)c2c1`, the activation is -0.095% (inactive).

As for `CC1CN(S(=O)(=O)c2ccc(F)cc2)C(C)N1C(=O)N1CCOCC1` (stereo not drawn), the activation was -0.215% (inactive).

Take `COc1ccc(NC(=O)Nc2cccc3c2O[C@H](CN(C)C(=O)NC2CCCCC2)[C@H](C)CN([C@H](C)CO)C3=O)cc1`: the activation was 0.915% (inactive).

Regarding `C[C@H](CO)N1C[C@H](C)[C@H](CN(C)CC2CCCCC2)Oc2ccc(NC(=O)Nc3ccc4c(c3)OCO4)cc2C1=O`, the activation is -0.185% (inactive).

On to `Cc1ccc(S(=O)(=O)N2CCN(C(=O)Cc3sc(C)nc3-c3ccc(F)cc3)CC2)c(C)c1`, for which the activation was -0.025% (inactive).

Take `Nc1nnc(SCc2nnc(-c3ccccc3)o2)s1`: the activation is 0.69% (inactive).

With `C=CCN(C(=O)c1csnn1)C(C(=O)NC1CCCCC1)c1ccccc1` (stereo not drawn), the activation was -0.215% (inactive).

For the compound `C[C@@H]1CN([C@H](C)CO)C(=O)c2cc(NS(=O)(=O)c3ccccc3)ccc2O[C@H]1CN(C)C(=O)NC1CCCCC1`, the activation is 0.289% (inactive).

As for `Cc1ccccc1NC(=O)c1cc(S(=O)(=O)Nc2cccc(C(=O)O)c2)ccc1Cl`, the activation is 0.3% (inactive).

Take `O=C(c1ccco1)N1CCN(C(=O)C2CC2)CC1`: the activation is -0.098% (inactive).

As for `C[C@@H]1CN([C@H](C)CO)C(=O)c2cccc(NC(=O)c3ccncc3)c2O[C@H]1CN(C)S(=O)(=O)c1ccccc1`, the activation was 2.7% (inactive).

Turning to `C[C@H]1CN([C@@H](C)CO)C(=O)c2cc(Br)cnc2O[C@H]1CN(C)Cc1cccc(F)c1`, the activation is -0.038% (inactive).

Regarding `COc1ccc(NC(=O)N(C)C[C@@H]2Oc3c(NS(=O)(=O)c4cn(C)cn4)cccc3C(=O)N([C@@H](C)CO)C[C@H]2C)cc1`, the activation is -0.199% (inactive).

With `CCCN1[C@H](CO)[C@H](c2ccc(C#Cc3ccccc3)cc2)[C@@H]1CNC1CCCC1`, the activation was 4.52% (inactive).

In the case of `CCOC(=O)C1CCCN(C(=O)c2cc(S(=O)(=O)N(C)C)ccc2N2CCCC2)C1` (stereo not drawn), the activation was 0.51% (inactive).

Take `CCCN(C)C[C@@H]1Oc2ncc(-c3ccccc3)cc2C(=O)N([C@H](C)CO)C[C@@H]1C`: the activation is -0.269% (inactive).

For the compound `Fc1ccc(NC(=S)N2CCN(c3cccc(C(F)(F)F)c3)CC2)cc1`, the activation was -0.235% (inactive).

`C[C@H]1CN([C@@H](C)CO)C(=O)c2cccc(NC(=O)c3ccncc3)c2O[C@@H]1CN(C)Cc1ccc(C(=O)Nc2ccccc2N)cc1`: the activation was 0.014% (inactive).

Consider `COc1ccc(C)cc1NC(=O)C(NCC(O)c1ccccc1)c1ccccc1` (stereo not drawn), for which the activation is -0.094% (inactive).

Turning to `CN(CC(=O)Nc1ccc(Br)cc1)Cc1ccccc1`, the activation was 0.013% (inactive).

`C[C@@H]1CN([C@H](C)CO)C(=O)c2cc(NC(=O)Cc3ccccc3)ccc2O[C@H]1CN(C)C(=O)NC1CCCCC1`: the activation is 0.096% (inactive).

As for `COc1ccc(C2c3[nH]c4ccccc4c3C[C@H]3C(=O)N(CC(C)C)CC(=O)N23)c(OC)c1` (stereo partly drawn), the activation is 0.036% (inactive).

On to `CCCCc1c(C)nc2ccc(C)cc2c1SCCC(=O)O`, for which the activation is -0.168% (inactive).

With `CC(C)NC(=O)Nc1cccc2c1O[C@H](CN(C)Cc1ccc(Cl)c(Cl)c1)[C@@H](C)CN([C@@H](C)CO)C2=O`, the activation is 0.01% (inactive).

In the case of `COc1ncnc(OC)c1S(=O)(=O)NCc1ccccc1`, the activation was -0.033% (inactive).

As to `CCC(CC)NC(=O)Nc1ccc(F)c(Cl)c1`, the activation is 0.516% (inactive).

On to `COc1ccc(NC(=O)CCCn2c(=S)[nH]c3ccccc3c2=O)cc1`, for which the activation was 1.61% (inactive).

In the case of `C[C@H](CO)N1C[C@H](C)[C@@H](CN(C)S(=O)(=O)c2ccc(Cl)cc2)Oc2ccc(NS(=O)(=O)c3ccc(F)cc3)cc2CC1=O`, the activation is -0.113% (inactive).

Take `C[C@@H]1CN([C@H](C)CO)C(=O)c2cccc(NS(C)(=O)=O)c2O[C@@H]1CN(C)Cc1ccncc1`: the activation was -0.083% (inactive).

Turning to `O=C(COC(=O)CCC(=O)c1ccc(F)cc1)Nc1cccc(S(=O)(=O)N2CCCC2)c1`, the activation is 2.61% (inactive).

On to `C[C@H](CO)N1C[C@H](C)[C@@H](CN(C)S(=O)(=O)c2cccs2)Oc2ccc(NS(=O)(=O)c3ccc(Cl)cc3)cc2CC1=O`, for which the activation is 0.125% (inactive).

Regarding `C[C@@H]1CN([C@@H](C)CO)C(=O)c2cc(NC(=O)Nc3ccc(C(F)(F)F)cc3)ccc2O[C@@H]1CN(C)Cc1ccc(Oc2ccccc2)cc1`, the activation is -0.275% (inactive).

In the case of `C/C(=N\NC(=O)C1CC1)c1ccc(Cl)cc1`, the activation was -0.246% (inactive).

In the case of `CCc1ccc(N2CC(C(=O)Nc3ccc(F)cc3)CC2=O)cc1` (stereo not drawn), the activation is 0.132% (inactive).

As for `CC1CCC(NC(=O)CCN2C(=O)C3C4C=CC(C4)C3C2=O)CC1` (stereo not drawn), the activation is 0.46% (inactive).

Staying with this experiment, now noted: HUVEC E-selectin immunostaining, at 21 µM (top of the series), percent of TNF-alpha response over vehicle.
As to `C[C@@H]1CN([C@@H](C)CO)C(=O)Cc2cc(NC(=O)Cc3ccccc3)ccc2O[C@@H]1CN(C)Cc1ccncc1`, the activation was -0.043% (inactive).

With `COc1ccc(S(=O)(=O)Nc2ccc3c(c2)C(=O)N([C@@H](C)CO)C[C@H](C)[C@H](CN(C)S(=O)(=O)c2ccc(Cl)cc2)O3)cc1`, the activation was 0.145% (inactive).

For `C[C@H](NC(=O)C[C@H]1CC[C@H]2[C@H](COc3ccc(NS(=O)(=O)c4ccc(Cl)cc4)cc3C(=O)N2C)O1)c1ccccc1`, the activation was 0.192% (inactive).

Regarding `COc1ccc(S(=O)(=O)N(C)C[C@H]2Oc3ccc(NC(=O)Nc4ccc5c(c4)OCO5)cc3CC(=O)N([C@@H](C)CO)C[C@H]2C)cc1`, the activation was 0.529% (inactive).

For the compound `C[C@H]1CN([C@@H](C)CO)C(=O)c2cccc(NC(=O)Nc3ccc(F)cc3)c2O[C@@H]1CN(C)C(=O)NC1CCCCC1`, the activation was 0.342% (inactive).

In the case of `C[C@H]1CN([C@@H](C)CO)C(=O)c2cc(NS(=O)(=O)c3cccs3)ccc2O[C@H]1CN(C)S(C)(=O)=O`, the activation is 0.402% (inactive).

Turning to `Cc1noc(C)c1NC(=O)N(C)C[C@@H]1Oc2ccc(NC(=O)c3ccncc3)cc2C(=O)N([C@H](C)CO)C[C@@H]1C`, the activation was 0.043% (inactive).

With `CCNC(=O)C[C@@H]1CC[C@@H]2[C@@H](COc3ccc(NC(=O)Nc4cccc(OC)c4)cc3C(=O)N2C)O1`, the activation is 0.153% (inactive).

With `Cc1noc(C)c1NC(=O)N(C)C[C@@H]1Oc2ccc(NS(=O)(=O)c3cccs3)cc2CC(=O)N([C@H](C)CO)C[C@@H]1C`, the activation was 10.8% (inactive).

With `COc1ccc(NC(=O)Nc2ccc3c(c2)C(=O)N([C@@H](C)CO)C[C@@H](C)[C@@H](CN(C)S(=O)(=O)c2ccc(F)cc2)O3)cc1`, the activation is 0.213% (inactive).

Turning to `COc1ccc(S(=O)(=O)Nc2ccc3c(c2)CC(=O)N([C@@H](C)CO)C[C@H](C)[C@@H](CN(C)C(=O)NC2CCCCC2)O3)cc1`, the activation is 0.142% (inactive).

Regarding `C[C@@H]1CN([C@H](C)CO)C(=O)Cc2cc(NC(=O)Nc3ccc(F)cc3)ccc2O[C@@H]1CN(C)S(=O)(=O)c1cn(C)cn1`, the activation is -0.103% (inactive).
